The values below come from article PMC3441706 (PLoS ONE, 2012).

Each structure is given as a SMILES string.

For one assay, the system named is p-p53 (Ser15). Nature of the assay: Immunofluorescence staining of p-p53 (Ser15) in HCT116 cells. The format is cell-based, human. To be noted: HCT116, 24 hours. The procedure:
(§1) HCT116 and HeLa cells were seeded on glass cover slips in 6-well plates. 24 hours after plating, HCT116 cells were incubated with 0.15, 0.5 and 1 µM NVX-412 and 1 µM CPT for 24 hours for staining of p-p53. For investigating γH2AX, HeLa cells were incubated with 0.21, 0.5 and 1 µM NVX-412 and 1 µM CPT for 3 or 24 hours. Additionally, cells were allowed to recover for 24 hours in normal growth medium after 24 hours of incubation with NVX-412 or CPT (wash-out experiment). After the respective treatments, cells were washed and fixed with 4% methanol-free formaldehyde (Polysciences Inc. Warrington, PA, USA) for 15 minutes at room temperature and then permeabilized with 0.2% Triton X-100/PBS for 2 minutes at room temperature. After blocking with goat serum (5%) in 1% BSA/0.3% Triton X-100/PBS, the respective primary antibody was added and cells were incubated at 4°C overnight. Antibodies used were: mouse p-p53 (Ser15) (Cell Signaling Technology, Danvers, MA, USA) at 1∶100 dilution and mouse p-H2AX (Ser139) (Millipore, Billerica, MA, USA) at 1∶1000 dilution in 1% BSA/PBS, respectively. Cells were then washed 3 times for 10 minutes with 0.25% BSA/0.1% Triton X-100/PBS and incubated with the Alexa Fluor 488 conjugated secondary anti-mouse antibody (1∶1000 in 0.25% BSA/0.1% Triton X-100/PBS) for 1 hour at room temperature in the dark. Cells were washed 3 times for 10 minutes with 0.05% Tween-20/PBS containing Hoechst 33342 (Sigma Aldrich, Vienna, AUT) and mounted with mounting medium (Fluoprep, bioMérieux, Marcy l'Etoile, FRA). Fluorescence was immediately recorded on a Zeiss LSM700 laser scanning microscope.

In the next assay the test system is KG-1a. The assay can be described thus: Cytotoxicity assay (cell counting). The format is cell-based. To be noted: Homo sapiens, AML, 72 hours incubation. The procedure:
(§2) Cells were plated in 24-well plates. After cells were allowed to recover for 24 hours, NVX-412 was added in fresh growth medium. The maximal DMSO concentration reached in all experiments was below 0.01%. Respective control experiments at the highest DMSO concentration were performed in order to rule out DMSO-induced effects. After 72 hours incubation the proportion of viable cells was determined by cell counting with a Z1 Coulter Particle Counter (Beckman Coulter, Vienna, AUT), a ViCell XR (Beckman Coulter, Vienna, AUT) or a CASY® Cell Counter (Schärfe, Reutlingen, Germany). Cytotoxicity was expressed as IC50 values that were derived from the corresponding dose–response curves.

In the next assay the test system is BV173. The assay can be described thus: Cytotoxicity assay (cell counting). The format is cell-based. To be noted: Homo sapiens, BV-173; BV173, CML; 72 hours incubation. The method, then: as §2
The subject of another assay is NALM-1. The assay can be described thus: Cytotoxicity assay (cell counting). The format is cell-based. To be noted: Homo sapiens; NALM-1, CML; 72 hours incubation. The procedure:
as §2

In the next assay the test system is SU-DHL-8. The assay can be described thus: Cytotoxicity assay (cell counting). The format is cell-based. To be noted: Homo sapiens; SU-DHL-8, B-cell lymphoma; 72 hours incubation. The procedure: as §2
The next assay deals with CLBL-1. The assay can be described thus: Cytotoxicity assay (cell counting). The format is cell-based. To be noted: Canis lupus familiaris; CLBL-1, canine B-cell lymphoma; 72 hours incubation. The procedure: as §2
In the next assay the test system is SU-DHL-6. The assay can be described thus: Cytotoxicity assay (cell counting). The format is cell-based. To be noted: Homo sapiens; SU-DHL-6, B-cell lymphoma; 72 hours incubation. The procedure: as §2
In another assay the test system is HepG2. Nature of the assay: Cytotoxicity assay (cell counting). To be noted: Homo sapiens; HepG2, liver carcinoma; 72 hours incubation. The format is cell-based. The method, then:
as §2

The next assay has as its system Hs578T. Nature of the assay: Cytotoxicity assay (cell counting). The format is cell-based. To be noted: Homo sapiens, Hs-578T, breast carcinoma, 72 hours incubation. The procedure: as §2
The subject of a further assay is KG-1. The assay can be described thus: Cytotoxicity assay (cell counting). The format is cell-based. To be noted: Homo sapiens; KG-1, AML; 72 hours incubation. The procedure:
as §2

A further assay concerns HL-60. The assay can be described thus: Cytotoxicity assay (cell counting). To be noted: Homo sapiens; HL-60, AML; 72 hours incubation. The format is cell-based. The procedure:
as §2

The subject of a further assay is γH2AX (Ser139). The assay can be described thus: Immunofluorescence staining and quantification of γH2AX in HeLa cells. The format is cell-based, human. The procedure: as §1
The common procedure for assessing γH2AX induction is to count γH2AX foci. Since with NVX-412 and the positive control CPT γH2AX activation was that strong, no distinguishable and countable foci were seen. Therefore, the average γH2AX fluorescence intensity per nucleus was determined. To this end, γH2AX intensities within a certain field were measured using Quantity One –4.6.9 (Basic freeware version, Bio-Rad Laboratories, Hercules, CA, USA) and were divided by the number of nuclei in this field.

In the case of `O=C(NNc1nc2cc(F)ccc2n2cccc12)c1cnccn1` [NVX-412, Pyrazine-2-carboxylic acid N’- (7-fluoro-pyrrolo[1,2-α]quinoxalin-4-yl)-hydrazide-oxalic acid co-crystal], the “p-p53 (Ser15) immunofluorescence staining” value with p-p53 (Ser15) (0.5 and 1 µM) was “positive staining”; with p-p53 (Ser15) (IC50 concentration) it was “did not lead to p-p53 (Ser15) staining”. Besides, the IC50 (as a rule, the concentration that gives 50% inhibition) in the assay with KG-1a worked out at 0.145 µM; in the assay with BV173 it was 0.21 µM; in the assay on NALM-1, 0.33 µM; in the assay on SU-DHL-8, 0.08 µM; in the assay on CLBL-1 it was 0.04 µM; with SU-DHL-6, 0.32 µM. The IC50 in the assay on HepG2 is 0.29 µM; in the assay on Hs578T, 0.135 µM; in the assay on KG-1, 0.19 µM; in the assay on HL-60 it was 0.21 µM. The γH2AX induction result in the assay with γH2AX (Ser139) (3 hours) is listed as “Only a slight induction of γH2AX”. The “γH2AX levels after recovery (wash-out)” value in the assay with γH2AX (Ser139) (24 hours treatment then 24 hours without drug) is given as “decreased to nearly basal levels”. Moreover, in the assay with γH2AX (Ser139) (24 hours, 0.21, 0.5 and 1 µM), the γH2AX levels entry is listed as “elevated after a 24 hour treatment in a dose-dependent manner”. Besides, in the assay on γH2AX (Ser139) (24 hours, highest concentration tested, p-value <0.0001), the “γH2AX staining increase (average fluorescence intensity per nucleus)” value is listed as “up to 15 fold”.
